Test results from patent US20060217390A1, “Cycloalkl, aryl and heteroaryl amino isothiazoles for the treatment of Hepatitis C virus” (priority 2005, published 2006).
pEC50, pIC50: −log10 of the molar value. Where two headings read alike, the source gives them in different places.

What was measured:
Huh-7 cells = system: Huh-7 cells
Text: A Huh-7 cell line carrying a luciferase reporter gene (driven by a HIV LTR promoter) stably integrated into the chromosome was used to analyze the cytotoxic effect of the selected compounds. This cell line (LTR-luc) was maintained in DMEM medium with 10% FBS. Design of the cytotoxicity assay was similar to that of the HCV replicon assay.

[1] = system: HCV Con1 subgenomic replicon in Huh-7 cells (NK/luc-ubi-neo); assay: HCV replicon assay (luciferase reporter); format: cell-based; conditions: anti-HCV activity, class symbols; read-out: Range of EC50 in HCV replicon assay
Protocol: A human hepatoma cell line (Huh-7) containing replicating HCV Con1 subgenomic replicon with a luciferase reporter gene (luc-ubi-neo) was used to evaluate anti-HCV activity of the compounds. In this assay, the level of luciferase signal correlates directly with the viral RNA replication. The HCV replicon-reporter cell line (NK/luc-ubi-neo) was cultured in DMEM medium supplemented with 10% fetal bovine serum and 0.5 mg/ml Geneticin (G418). Cells were maintained in a subconfluent state to ensure high levels of HCV replicon RNA synthesis.
To evaluate the antiviral activity of compounds, serial dilutions were prepared with concentrations ranging from 0.14 to 300 μM. Diluted compounds were transferred to a 96-well plate followed by the addition of replicon cells (6000 cells per well). Cells were incubated with the compounds for 48 hours after which luciferase activity was measured.

HCV replicase complexes = target: T1, HCV replicase complexes (Hepatitis C virus genotype 1b, UniProt Q9WMX2); assay: In vitro HCV replicase complex assay; format: biochemical; conditions: crude membrane fraction of I389/NS3-3 replicon cells
T1 construct: viral non-structural proteins (NS3, NS4A, NS4B, NS5A and NS5B); expressed in transfected cells; host or cells: HCV subgenomic replicon cell line (I389/NS3-3)
Protocol: Crude membrane fraction containing the replicase complexes (RC) was isolated from the HCV subgenomic replicon cell line (I389/NS3-3) (Lohmann et al., Science 285:110-113, 1999) through Dounce homogenization and high-speed centrifugation (Lai et al., J. Virol. 73:2295-2300). Standard assay mixtures contained 50 mM HEPES (pH 7.3), 10 mM KCl, 10 mM MgCl2, 20 units of ribonuclease inhibitor, 10 μg/ml actinomycin D, 0.5 mM of ATP, GTP, CTP, 10 μCi of [α-^33P] UTP and 0.5 μl of the membrane fraction in a total volume of 20 μl. To determine the inhibitory effect of compounds on the HCV replicase complexes, pre-incubation of the RC membrane fraction with tested compounds was performed in a reaction mixture at 4° C. for 15 minutes. The reaction was then initiated by the addition of the radiolabeled UTP and cold nucleotides and incubated at 30° C. for 1 hour. Products were extracted with phenol/chloroform, precipitated with ethanol, and separated on a 1% agarose gel. After electrophoresis, the gel was dried prior to autoradiography. Radioactivity incorporated into viral RNA was quantitated by using a Phosphorimager (Amersham Biosciences Corp., Piscataway, N.J.) and was used to determine the IC50 value. A number of the exemplary compounds were potent inhibitors that blocked viral RNA synthesis catalyzed by HCV replicase complexes, with IC50 values in the nM range (Table 2).

[2] = system: parental replicon cells (I389/NS3-3); assay: Sensitivity of parental (wild-type) replicon cells, HCV replicon RNA by quantitative RT-PCR; format: cell-based; conditions: Wild-type replicon cell line; for pEC50: Hepatitis C virus, HCV replicon RNA by RT-PCR, 72 hours of treatment; for Fold over wild-type: fold of EC50
Protocol: (§1) A replicon-containing cell line (I389/NS3-3) was used to select the resistant replicons against Compound 1 (Lohmann et al., Science 285:110-113, 1999). Replicon cells were plated in a 100 mm dish, under a subconfluent condition (approximately at 40% confluency). After 24 hours, Compound 1 was added to the cells with the final concentration of 2 μM in the medium containing 1 mg of G418 per ml. After 3 weeks, colonies of cells resistant to Compound 1 were isolated and expanded. Three independent cell lines (w1, w3 and w4) with growth rate similar to that of the parental replicon cells were selected to test for their sensitivity to Compound 1.
(§2) To confirm that viral RNAs in the selected cell lines were resistant to Compound 1, the cells were treated with the compound with concentrations from 0.05 to 5 μM. After 72-hours of treatment, cells were lysed and the cell lysates were diluted with RNase-free water, from which 5 μl was used to quantify the HCV replicon RNA by using real-time quantitative reverse transcriptase (RT) PCR assay (Cheney et al., Virology 297:298-306, 2002). Same quantitative RT-PCR protocol was used to determine the level of the cellular glyceraldhehyde-3-phosphate dehydrogenase (GAPDH) RNA in the same cell lysate, which served as an internal control to normalize the difference of total RNAs. To calculate the EC50 values of Compound 1 against the resistant cell lines, the relative cycle threshold (CT) for the HCV and GAPDH was determined. […] Identification of the Molecular Target

[3] = system: resistant replicon cell lines (w1, w3 and w4); assay: Sensitivity of resistant replicon cell lines, HCV replicon RNA by quantitative RT-PCR; format: cell-based; conditions: for pEC50: Hepatitis C virus, 72 h, HCV replicon RNA by RT-PCR, 72 hours of treatment; for Fold over wild-type: fold of EC50
Protocol: as §1, §2

NS5B polymerase = target: T2, NS5B polymerase (Hepatitis C virus genotype 1b, UniProt Q9WMX2, C2735Y); assay: Identification of the molecular target (sequencing of resistant replicons); parameters: species or system HCV; conditions: eight cDNA clones of three resistant cell lines (w1, w3 and w4)
T2 construct: a single nucleotide change in the region of viral NS5B polymerase; expressed in transfected cells; host or cells: HCV subgenomic replicon cells (parental and Compound 1-resistant lines w1, w3, w4)
Protocol: To determine the targeted viral gene of Compound 1, total RNA was isolated from the resistant cell lines and from the parental replicon cells. The cDNA fragment encoding the HCV nonstructural proteins (NS3-NS5B) was amplified from the total cellular RNA by using a Thermoscript RT-PCR kit (Invitrogen). The cDNA fragments were cloned into pCR4-TOPO vector by using a TOPO TA cloning kit (Invitrogen). The entire DNA sequence of the HCV nonstructural coding region was determined for multiple independent cDNA clones.
Eight different cDNA clones were generated from three independently cell lines selected by Compound 1 (cell lines w1, w3 and w4) and three cDNA clones from the parental cell line.

[4] = read-out: Range of CC50 in cytotoxicity assay, cytotoxicity, class symbols

T1 sequence (Q9WMX2 2420-3010, one chain of several): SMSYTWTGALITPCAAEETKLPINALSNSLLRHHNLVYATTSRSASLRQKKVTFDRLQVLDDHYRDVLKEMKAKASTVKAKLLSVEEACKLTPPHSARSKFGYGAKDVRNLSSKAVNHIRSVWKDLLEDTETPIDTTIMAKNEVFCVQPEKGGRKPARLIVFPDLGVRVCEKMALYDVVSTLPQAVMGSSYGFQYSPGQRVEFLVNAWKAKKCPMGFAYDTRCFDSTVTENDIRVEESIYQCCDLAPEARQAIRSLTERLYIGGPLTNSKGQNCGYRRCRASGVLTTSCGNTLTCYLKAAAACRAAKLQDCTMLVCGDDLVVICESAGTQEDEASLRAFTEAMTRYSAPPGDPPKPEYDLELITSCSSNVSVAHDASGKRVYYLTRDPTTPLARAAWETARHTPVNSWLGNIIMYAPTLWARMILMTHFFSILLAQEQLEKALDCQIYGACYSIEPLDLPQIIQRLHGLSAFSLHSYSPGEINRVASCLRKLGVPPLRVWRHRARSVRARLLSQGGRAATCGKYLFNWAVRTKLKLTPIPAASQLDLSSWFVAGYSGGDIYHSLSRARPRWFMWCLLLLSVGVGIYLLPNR
T2 sequence (Q9WMX2 2420-3010 C2735Y): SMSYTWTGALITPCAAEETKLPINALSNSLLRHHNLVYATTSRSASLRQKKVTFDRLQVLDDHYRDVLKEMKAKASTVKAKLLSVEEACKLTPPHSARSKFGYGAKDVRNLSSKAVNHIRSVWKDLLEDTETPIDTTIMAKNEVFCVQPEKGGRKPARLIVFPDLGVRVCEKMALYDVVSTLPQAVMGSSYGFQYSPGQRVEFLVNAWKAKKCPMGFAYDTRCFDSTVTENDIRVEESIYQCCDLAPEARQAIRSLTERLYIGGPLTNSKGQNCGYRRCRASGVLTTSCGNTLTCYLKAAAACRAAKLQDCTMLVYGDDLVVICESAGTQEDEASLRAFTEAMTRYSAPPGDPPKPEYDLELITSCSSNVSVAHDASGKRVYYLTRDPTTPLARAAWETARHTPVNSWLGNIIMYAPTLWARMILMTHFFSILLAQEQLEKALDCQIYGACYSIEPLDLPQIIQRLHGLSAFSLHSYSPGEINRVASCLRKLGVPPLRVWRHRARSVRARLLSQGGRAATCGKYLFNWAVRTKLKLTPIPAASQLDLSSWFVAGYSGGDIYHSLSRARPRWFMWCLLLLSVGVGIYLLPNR

SMILES | CC50 (Huh-7 cells) | pEC50 [1] | CC50 (Huh-7 cells; [4]) | further results
N#Cc1c(Nc2ccccc2Cl)s[nH]c1=O | > 50 µM | 4.30 to 5.00 |  | 
COc1ccc(Nc2s[nH]c(=O)c2C#N)cc1 | > 50 µM | 4.30 to 5.00 |  | 
COc1ccccc1Nc1s[nH]c(=O)c1C#N | > 50 µM | 4.30 to 5.00 |  | 
N#Cc1c(Nc2ccccc2C(F)(F)F)s[nH]c1=O | > 50 µM | 4.30 to 5.00 |  | 
CC(C)c1cccc(C(C)C)c1Nc1s[nH]c(=O)c1C#N | > 50 µM | 4.30 to 5.00 |  | 
CC(C)c1ccccc1Nc1s[nH]c(=O)c1C#N | > 50 µM | < 4.30 |  | 
N#Cc1c(Nc2ccc(F)cc2)s[nH]c1=O | > 50 µM | 4.30 to 5.00 |  | 
COC(=O)c1cccc(Nc2s[nH]c(=O)c2C#N)c1 | > 50 µM | < 4.30 |  | 
COC(=O)c1ccc(Nc2s[nH]c(=O)c2C#N)cc1 |  | 4.30 to 5.00 | > 50 µM | 
N#Cc1c(Nc2ccccc2F)s[nH]c1=O | > 50 µM | 4.30 to 5.00 |  | 
N#Cc1c(Nc2cc(C(F)(F)F)cc(C(F)(F)F)c2)s[nH]c1=O |  | 5.00 to 6.00 | > 50 µM | 
COC(=O)c1ccccc1Nc1s[nH]c(=O)c1C#N | > 50 µM | < 4.30 |  | 
N#Cc1c(NC23CC4CC(CC(C4)C2)C3)s[nH]c1=O | > 50 µM | 5.00 to 6.00 |  | 
N#Cc1c(Nc2ccc(Cl)cc2Cl)s[nH]c1=O | > 50 µM | 4.30 to 5.00 |  | 
N#Cc1c(Nc2cccc(Cl)c2Cl)s[nH]c1=O | > 50 µM | < 4.30 |  | 
N#Cc1c(NCC2CCCO2)s[nH]c1=O (stereo not shown) | > 50 µM | < 4.30 |  | 
N#Cc1c(NCC2CCCCC2)s[nH]c1=O | > 50 µM | 5.00 to 6.00 |  | 
N#Cc1c(Nc2ccc(I)cc2)s[nH]c1=O | > 50 µM | 5.00 to 6.00 |  | 
N#Cc1c(Nc2ccc(I)cc2Cl)s[nH]c1=O |  | 5.00 to 6.00 | < 50 µM | 
N#Cc1c(Nc2ccc(I)c(Cl)c2)s[nH]c1=O |  | > 6.00 | > 50 µM | 
N#Cc1c(Nc2ccc(C(=O)O)cc2)s[nH]c1=O | > 50 µM | < 4.30 |  | 
CN(C)c1ccc(Nc2s[nH]c(=O)c2C#N)c2ccccc12 |  | < 4.30 | > 50 µM | 
CN(C)c1ccc2ccccc2c1Nc1s[nH]c(=O)c1C#N |  | < 4.30 | > 50 µM | 
N#Cc1c(NC2CCc3ccccc32)s[nH]c1=O (stereo not shown) | > 50 µM | 5.00 to 6.00 |  | 
CCCC1CCC(c2ccc(Nc3s[nH]c(=O)c3C#N)cc2)CC1 (stereo not shown) |  | 5.00 to 6.00 | < 50 µM | 
N#Cc1c(Nc2ccc(C(=O)c3ccccc3)cc2)s[nH]c1=O |  | 4.30 to 5.00 | > 50 µM | 
N#Cc1c(Nc2ccc(Cc3ccccc3)cc2)s[nH]c1=O | > 50 µM | < 4.30 |  | 

SMILES | CC50 (Huh-7 cells) | pEC50 [1] | CC50 (Huh-7 cells; [4]) | further results
N#Cc1c(Nc2ccc(S(=O)(=O)Nc3ccccc3)cc2)s[nH]c1=O | > 50 µM | < 4.30 |  | 
Cc1cccc(C)c1Sc1ccc(Nc2s[nH]c(=O)c2C#N)cc1 |  | 5.00 to 6.00 | < 50 µM | 
N#Cc1c(NCCc2ccc(O)cc2)s[nH]c1=O | > 50 µM | < 4.30 |  | 
N#Cc1c(NCCc2cccs2)s[nH]c1=O | > 50 µM | < 4.30 |  | 
N#Cc1c(Nc2cc(F)c(Br)c(F)c2)s[nH]c1=O |  | > 6.00 | > 50 µM | 
N#Cc1c(Nc2cc(Cl)c(Cl)c(Cl)c2)s[nH]c1=O | < 50 µM | > 6.00 |  | 
N#Cc1c(Nc2ccc(Cl)c(Cl)c2)s[nH]c1=O | > 50 µM | > 6.00 |  | 
N#Cc1c(Nc2ccc(Br)c(F)c2)s[nH]c1=O |  | > 6.00 | > 50 µM | 
N#Cc1c(Nc2ccc(Br)c(Cl)c2)s[nH]c1=O | > 50 µM | > 6.00 |  | 
N#Cc1c(Nc2cc(Br)cc(C(F)(F)F)c2)s[nH]c1=O |  | > 6.00 | > 50 µM | 
N#Cc1c(Nc2ccc(Br)cn2)s[nH]c1=O |  | 4.30 to 5.00 | > 50 µM | 
N#Cc1c(Nc2ccc(Br)nc2)s[nH]c1=O | > 50 µM | 4.30 to 5.00 |  | 
N#Cc1c(Nc2ccc(Cl)cn2)s[nH]c1=O |  | 4.30 to 5.00 | > 50 µM | 
N#Cc1c(Nc2ccnc(Cl)c2)s[nH]c1=O | > 50 µM | 4.30 to 5.00 |  | 
N#Cc1c(Nc2ccc(Br)c(C(F)(F)F)c2)s[nH]c1=O |  | 5.00 to 6.00 | > 50 µM | 
N#Cc1c(Nc2cccc(Br)n2)s[nH]c1=O |  | 4.30 to 5.00 | > 50 µM | 
N#Cc1c(Nc2cc(Cl)nc(Cl)c2)s[nH]c1=O |  | 5.00 to 6.00 | < 50 µM | 
N#Cc1c(Nc2ccc(C(F)(F)F)cn2)s[nH]c1=O | > 50 µM | 4.30 to 5.00 |  | 
N#Cc1c(O)nsc1Nc1cc(Cl)cc(Cl)c1 |  |  |  | pIC50 (HCV replicase complexes): > 7.30
N#Cc1c(O)nsc1Nc1ccc(Cl)cc1 |  |  |  | pIC50 (HCV replicase complexes): 7.00 to 7.30
N#Cc1c(Nc2ccc(Br)cc2)s[nH]c1=O |  |  |  | pIC50 (HCV replicase complexes): > 7.30
N#Cc1c(O)nsc1Nc1cc(C(F)(F)F)cc(C(F)(F)F)c1 |  |  |  | pIC50 (HCV replicase complexes): 6.60 to 7.00
C[C@@]1(O)[C@H](O)[C@@H](CO)O[C@H]1n1cnc2c(N)ncnc21 [2′-C-methyl-adenosine] |  |  |  | pEC50 [2]: 6.44; Fold over wild-type [2]: 1; pEC50 ([3]; resistant cell line W1): 6.80; pEC50 ([3]; resistant cell line W3): 6.59; pEC50 ([3]; resistant cell line W4): 6.51; sensitivity of resistant cell lines to inhibition ([3]; cell lines w1, w3, w4 selected with Compound 1): still sensitive to inhibition; Fold over wild-type ([3]; resistant cell line W1): 0.4; Fold over wild-type ([3]; resistant cell line W3): 0.7; Fold over wild-type ([3]; resistant cell line W4): 0.9
N#Cc1c(Nc2cc(Cl)cc(Cl)c2)s[nH]c1=O [Compound 1] |  |  |  | mutation present in cDNA clones of cell lines selected by the compound (NS5B polymerase): cysteine at position 316 of NS5B polymerase to a tyrosine residue; pEC50 [2]: 7.15; Fold over wild-type [2]: 1; pEC50 ([3]; resistant cell line W1): 5.43; pEC50 ([3]; resistant cell line W3): 5.69; pEC50 ([3]; resistant cell line W4): 5.34; Fold over wild-type ([3]; resistant cell line W1): 52; Fold over wild-type ([3]; resistant cell line W3): 29; Fold over wild-type ([3]; resistant cell line W4): 66
N#Cc1c(Nc2ccc(Cl)c(C(F)(F)F)c2)s[nH]c1=O [drawing 430] | > 50 µM | 5.00 to 6.00 |  | 
N#Cc1c(Nc2ccc(Cl)c(C(F)(F)F)c2)s[nH]c1=O [drawing 483] |  |  |  | pIC50 (HCV replicase complexes): 7.00 to 7.30
